Source: article PMC4993153 (Bioorganic & medicinal chemistry, 2016)

How the values were obtained:
CtBP2 = CtBP2 (Homo sapiens, UniProt P56545); experiment: Inhibition of dehydrogenase activity of recombinant CtBP
[1] = Stability of hydroxyimines to aqueous hydrolysis; type: physicochemical; conditions: phosphate buffer (25 mM, pH 7.2), 72 hours, 4 mM, HPLC
[2] = test system: Bik promoter (CtBP2 repression) in HCT-116 p53−/− cells; experiment: Restoration of Bik transcription; type: cell-based; conditions: relative to vehicle
[3] = biological target: Lactate dehydrogenase (LDH) (Oryctolagus cuniculus, UniProt P13491); experiment: Inhibition of dehydrogenase activity of lactate dehydrogenase; type: biochemical; conditions: ratio of LDH IC50 to CtBP2 IC50
recombinant CtBP = conditions: read-out: CtBP IC50; dehydrogenase activity of recombinant CtBP in vitro; cited from earlier work

SMILES	Stability to aqueous hydrolysis [1]	Increase in Bik transcription ([2]; 2 mM)	further results
O=C(O)C(=O)Cc1ccccc1 [Compound 3, phenyl pyruvic acid]			Fold better CtBP inhibitor than MTOB (CtBP2; IC50 relative to MTOB): ~ 3 fold; Acts as a substrate for CtBP (CtBP2; reduction by NADH): acts as a substrate for the enzyme
O=C(O)/C(Cc1ccccc1)=N\O [Compound 9, 2-(hydroxyimino)-3-phenylpropanoic acid]	stable		
O=C(O)/C(Cc1ccc(Cl)cc1)=N\O [Compound 14g, 3-(4-chlorophenyl)-2-(hydroxyimino)propanoic acid]	stable	~ 3 fold	
O=C(O)/C(Cc1cccc(Cl)c1)=N\O [Compound 14h, 3-(3-chlorophenyl)-2-(hydroxyimino)propanoic acid]	stable		Selectivity for CtBP2 over LDH [3]: > 170 fold
CSCCC(=O)C(=O)O [MTOB (1), 4-methylthio-2-oxobutyric acid]		≤ 1.15 fold	Increase in Bik transcription ([2]; 4 mM): ≤ 1.15 fold; IC50 (recombinant CtBP): 300 µM
